Earlier results on 5 molecules are cited in patent US20170080084A1, “OIL/SURFACTANT MIXTURES FOR SELF-EMULSIFICATION” (priority 2014, published 2017).

The conditions of the data set: readily available values.

polyoxyethylene cetostearyl ether: the HLB is recorded as 13.5.
polyoxyethylene (10) lauryl ether: the HLB was 17.
Take `CCCCCCCCCCCCOS(=O)(=O)[O-].[Na+]` [SDS]: the HLB is 40.
With “polyoxyethylene sorbitan monooleate [polysorbate 80]”, the HLB was 15.
For Sorbitan monooleate, the HLB was 4.3.
